Results: paper PMC2740427 (The Journal of Biological Chemistry, 2009)
Read-outs that look alike come from different tables or passages of the source.

Columns and labels:
[1] = molecular target: T1, MCT1 (Rattus norvegicus, UniProt P53987); assay: inhibition of L-[…]lactate uptake in Xenopus oocytes, DIDS present in assay; format: cell-based; conditions: read-out: % inhibition (reversible) at 0.2 mM
T1 sequence (P53987 1-494): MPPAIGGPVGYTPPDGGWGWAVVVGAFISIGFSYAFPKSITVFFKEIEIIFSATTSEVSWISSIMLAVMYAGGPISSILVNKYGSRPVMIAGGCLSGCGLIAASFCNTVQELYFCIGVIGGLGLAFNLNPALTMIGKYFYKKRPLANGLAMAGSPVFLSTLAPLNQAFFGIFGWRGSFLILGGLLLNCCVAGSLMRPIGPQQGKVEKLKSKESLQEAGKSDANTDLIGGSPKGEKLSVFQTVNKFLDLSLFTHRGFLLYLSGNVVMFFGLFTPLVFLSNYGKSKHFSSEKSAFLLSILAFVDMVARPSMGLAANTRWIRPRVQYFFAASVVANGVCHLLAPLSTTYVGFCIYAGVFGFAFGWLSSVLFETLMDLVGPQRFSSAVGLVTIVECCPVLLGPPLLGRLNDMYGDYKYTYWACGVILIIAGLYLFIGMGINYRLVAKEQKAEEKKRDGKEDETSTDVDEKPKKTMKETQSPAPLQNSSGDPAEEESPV

[2] = molecular target: T1, MCT1; format: cell-based; conditions: read-out: % inhibition (irreversible) at 0.2 mM

inhibition at 200 µM [1]: ~60%
inhibition at 200 µM [2]: ~60%
Compound: O=S(=O)(O)c1cc(N=C=S)ccc1/C=C/c1ccc(N=C=S)cc1S(=O)(=O)O [DIDS]
